Experimental findings from US20220152100A1, “METHODS FOR CONTROLLED ACTIVATION OR ELIMINATION OF THERAPEUTIC CELLS” (Bellicum Pharmaceuticals, Inc., priority 2014, published 2022) are described below.

SMILES strings stand for the structures. Where “and” joins values, the source holds several entries; their conditions need not be identical. Equal values may be shown once. A value given as a limit tells only on which side of the number the result lay.

The subject of one experiment is Jurkat. The experiment can be described thus: CID-induced apoptosis (annexin V) in transduced Jurkat cells. It is filed as cell-based, human. The following applies: iFas-transduced Jurkat, 10 nM, 8 hours.
Experiment [1] relates to EBV-specific and CMV-specific T cells. The experiment can be described thus: Pentamer analysis of virus-specific T cells after dimerizer. Particulars: 10 nM after 4 days reactivation with allogeneic PBMC. It is filed as cell-based, human.
In the next experiment the test system is MSCs. The experiment can be described thus: CID-induced apoptosis of iCasp9-ΔCD19 transduced undifferentiated MSCs.
The test system of a further experiment is iCasp9-positive MSCs. Description: In vivo killing of iCasp9-transduced MSCs in SCID mice (luminescence, qPCR). On the procedure:
All mouse experiments were performed in accordance with the Baylor College of Medicine animal husbandry guidelines. To assess the persistence of modified MSCs in vivo, a SCID mouse model was used in conjunction with an in vivo imaging system. MSCs were transduced with retroviruses coding for the enhanced green fluorescent protein-firefly luciferase (eGFP-FFLuc) gene alone or together with the iCasp9-ΔCD19 gene. Cells were sorted for eGFP positivity by fluorescence activated cell sorting using a MoFlo flow cytometer (Beckman Coulter, Fullerton, Calif.). Doubly transduced cells were also stained with PE-conjugated anti-CD19 and sorted for PE-positivity. SCID mice (8-10 weeks old) were injected subcutaneously with 5×10^5 MSCs with and without iCasp9-ΔCD19 in opposite flanks. […] For in vivo imaging of MSCs expressing eGFP-FFLuc, mice were injected intraperitoneally with D-luciferin (150 mg/kg) and analyzed using the Xenogen-IVIS Imaging System. Total luminescence (a measurement proportional to the total labeled MSCs deposited) at each time point was calculated by automatically defining regions-of-interest (ROIs) over the MSC implantation sites. These ROIs included all areas with luminescence signals at least 5% above background. Total photon counts were integrated for each ROI and an average value calculated. […]
Background: Quantitative PCR measures a nucleic acid by following its amplification.

A further experiment relates to differentiated MSCs. The experiment can be described thus: CID-induced apoptosis of differentiated MSC progeny (TUNEL, cell density). The following applies: adipocytic differentiated iCasp9-positive cells, 50 nM, 24 hours; from 584.

Take `CC[C@H](C(=O)N1CCCC[C@H]1C(=O)O[C@H](CCc1ccc(OC)c(OC)c1)c1cccc(OCC(=O)NCC(CNC(=O)COc2cccc([C@@H](CCc3ccc(OC)c(OC)c3)OC(=O)[C@@H]3CCCCN3C(=O)[C@@H](CC)c3cc(OC)c(OC)c(OC)c3)c2)CN(C)C)c1)c1cc(OC)c(OC)c(OC)c1` [AP20187]: the “apoptotic cells (annexin-V)” value in the experiment on Jurkat amounted to 56.4%+/−15.6. The “effect on virus-specific T cells (HLA pentamers, EBV and CMV)” value in experiment [1] is listed as “spares (and thereby enriches) viral reactive subpopulations”. For the same molecule, the apoptosis index in the experiment with MSCs (iCasp9-negative MSCs, 50 nM, 24 hrs, listed as CID) was 20±7% and 19%. The molecule further had an apoptotic death in the experiment on MSCs (iCasp9-positive MSCs, 50 nM, 24 hrs) of 93±1%. Moreover, in the experiment on MSCs (magnetically immunoselected iCasp9-CD19-positive MSCs), the apoptotic cells entry was “More than 95%”. Besides, in the experiment on MSCs (non-transduced control MSC (Control/CID), 50 nM), the annexin positive cells was 15%. Also, the “surviving iCasp9-positive cells, of the original population” value in the experiment with iCasp9-positive MSCs (after one week) is given as 0.7%. Also, the “killing of iCasp9-positive cells” value with iCasp9-positive MSCs (two injections of 50 μg 24 hours apart, qPCR) is recorded as over 99%. This molecule returned a cell density in the experiment on differentiated MSCs of under 14 cells/mm2.
